We go through 34 compounds from US20250145633A1, “SUBSTITUTED FURANOPYRIMIDINE COMPOUNDS AS PDE1 INHIBITORS” (Dart NeuroScience, LLC, priority 2017, published 2025).

Molecules are shown by their SMILES.

The assay deals with human PDE1B enzyme (Homo sapiens (Human), UniProt Q01064). The assay can be described thus: IMAP TR-FRET PDE1B enzymatic assay. It counts as biochemical. The settings on record: negative log of half-maximal molar inhibitory concentration, 200 nM FAM-cAMP, values given as bins; for IC50: read-out: PDE1b (pIC50) (converted). In a few lines:
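Full-length GST-tagged human PDE1B (250 pg/well) in IMAP BSA buffer with 10 U/ml calmodulin and 2.5 mM CaCl2; compound pre-incubated 5 min at room temperature, then 200 nM (final) FAM-cAMP for 30 min. IMAP binding reagent/Tb added, 1 h; TR-FRET 520/490 ratio read. IC50 from sigmoidal dose-response fit.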

For the compound `Cc1oc2ncnc(NC3(C)CC3)c2c1C(=O)NCC1CCOCC1` [Example 139, 6-Methyl-4-[(1-methylcyclopropyl)amino]-N-(oxan-4-ylmethyl)furo[2,3-d]pyrimidine-5-carboxamide], the IC50 is 10 to 100 nM.

Take `CCC1(NC(=O)c2c(C)oc3ncnc(NC4(C)CC4)c23)CCOCC1` [Example 140, N-(4-Ethyloxan-4-yl)-6-methyl-4-[(1-methylcyclopropyl)amino]furo[2,3-d]pyrimidine-5-carboxamide]: the IC50 was 10 to 100 nM.

Turning to `Cc1oc2ncnc(NC3(C)CC3)c2c1C(=O)Nc1cnn(C)c1` [Example 141, 6-Methyl-N-(1-methyl-1H-pyrazol-4-yl)-4-[(1-methylcyclopropyl)amino]furo[2,3-d]pyrimidine-5-carboxamide], the IC50 was 10 to 100 nM.

Regarding `Cc1cc(NC(=O)c2c(C)oc3ncnc(NC4(C)CC4)c23)no1` [Example 142, 6-Methyl-N-(5-methyl-1,2-oxazol-3-yl)-4-[(1-methylcyclopropyl)amino]furo[2,3-d]pyrimidine-5-carboxamide], the IC50 is 10 to 100 nM.

For `Cc1oc2ncnc(NC3(C)CC3)c2c1C(=O)Nc1nccs1` [Example 143, 6-Methyl-4-[(1-methylcyclopropyl)amino]-N-(1,3-thiazol-2-yl)furo[2,3-d]pyrimidine-5-carboxamide], the IC50 is 10 to 100 nM.

For the compound `COc1ccc(NC(=O)c2c(C)oc3ncnc(NC4(C)CC4)c23)nc1` [Example 144, N-(5-Methoxypyridin-2-yl)-6-methyl-4-[(1-methylcyclopropyl)amino]furo[2,3-d]pyrimidine-5-carboxamide], the IC50 is 10 to 100 nM.

Regarding `CCC1(NC(=O)c2c(C)oc3ncnc(NC4(C)CC4)c23)CC1` [Example 145, N-(1-Ethylcyclopropyl)-6-methyl-4-[(1-methylcyclopropyl)amino]furo[2,3-d]pyrimidine-5-carboxamide], the “PDE1b (pIC50)” value is listed as greater than 8.

On to `Cc1oc2ncnc(NC3(C)CC3)c2c1C(=O)NC1(CO)CC1` [Example 146, N-[1-(Hydroxymethyl)cyclopropyl]-6-methyl-4-[(1-methylcyclopropyl)amino]furo[2,3-d]pyrimidine-5-carboxamide], for which the IC50 is 10 to 100 nM.

Regarding `Cc1oc2ncnc(NC3(C)CC3)c2c1C(=O)NC1(C(C)C)CC1` [Example 147, 6-Methyl-4-[(1-methylcyclopropyl)amino]-N-[1-(propan-2-yl)cyclopropyl]furo[2,3-d]pyrimidine-5-carboxamide], the “PDE1b (pIC50)” value is on record as greater than 8.

`COCC1(NC(=O)c2c(C)oc3ncnc(NC4(C)CC4)c23)CC1` [Example 148, N-[1-(Methoxymethyl)cyclopropyl]-6-methyl-4-[(1-methylcyclopropyl)amino]furo[2,3-d]pyrimidine-5-carboxamide]: the IC50 was 10 to 100 nM.

On to `Cc1oc2ncnc(NC3(C)CC3)c2c1C(=O)NC1(C2CC2)CC1` [Example 149, N-(1-Cyclopropylcyclopropyl)-6-methyl-4-[(1-methylcyclopropyl)amino]furo[2,3-d]pyrimidine-5-carboxamide], for which the IC50 was 10 to 100 nM.

On to `Cc1oc2ncnc(NC3(C)CC3)c2c1C(=O)NC1(C2CCC2)CC1` [Example 150, N-(1-Cyclobutylcyclopropyl)-6-methyl-4-[(1-methylcyclopropyl)amino]furo[2,3-d]pyrimidine-5-carboxamide], for which the “PDE1b (pIC50)” value is on record as greater than 8.

Take `Cc1oc2ncnc(NC3(C)CC3)c2c1C(=O)NC1CC(c2ccc(F)cc2)C1` (stereo not shown) [Example 151, N-[3-(4-Fluorophenyl)cyclobutyl]-6-methyl-4-[(1-methylcyclopropyl)amino]furo[2,3-d]pyrimidine-5-carboxamide]: the IC50 is 10 to 100 nM.

For `Cc1oc2ncnc(NC3(C)CC3)c2c1C(=O)N1CCN(c2ncccc2F)CC1` [Example 152, 5-[4-(3-Fluoropyridin-2-yl)piperazine-1-carbonyl]-6-methyl-N-(1-methylcyclopropyl)furo[2,3-d]pyrimidin-4-amine], the “PDE1b (pIC50)” value was greater than 8.

For `Cc1oc2ncnc(NC3(C)CC3)c2c1C(=O)N1CCN(c2ncc(F)cn2)CC1` [Example 153, 5-[4-(5-Fluoropyrimidin-2-yl)piperazine-1-carbonyl]-6-methyl-N-(1-methylcyclopropyl)furo[2,3-d]pyrimidin-4-amine], the IC50 was 10 to 100 nM.

Regarding `Cc1oc2ncnc(NC3(C)CC3)c2c1C(=O)N1CCN(c2cccc(F)n2)CC1` [Example 154, 5-[4-(6-Fluoropyridin-2-yl)piperazine-1-carbonyl]-6-methyl-N-(1-methylcyclopropyl)furo[2,3-d]pyrimidin-4-amine], the “PDE1b (pIC50)” value was greater than 8.

On to `Cc1oc2ncnc(NC3(C)CC3)c2c1C(=O)N1CC[C@@H]2OCC[C@@H]21` [Example 155, 5-[(3aS,6aS)-Hexahydro-2H-furo[3,2-b]pyrrole-4-carbonyl]-6-methyl-N-(1-methylcyclopropyl)furo[2,3-d]pyrimidin-4-amine], for which the IC50 is 10 to 100 nM.

Consider `Cc1oc2ncnc(NC3(C)CC3)c2c1C(=O)N1CCCN(c2ccccc2F)CC1` [Example 156, 5-[4-(2-Fluorophenyl)-1,4-diazepane-1-carbonyl]-6-methyl-N-(1-methylcyclopropyl)furo[2,3-d]pyrimidin-4-amine], for which the IC50 was 10 to 100 nM.

As to `Cc1oc2ncnc(NC3(C)CC3)c2c1C(=O)N1CCCN(c2ccccc2)CC1` [Example 157, 6-Methyl-N-(1-methylcyclopropyl)-5-(4-phenyl-1,4-diazepane-1-carbonyl)furo[2,3-d]pyrimidin-4-amine], the IC50 is 100 to 1000 nM.

In the case of `Cc1oc2ncnc(NC3(C)CC3)c2c1C(=O)N1CCCN(c2ccccn2)CC1` [Example 158, 6-Methyl-N-(1-methylcyclopropyl)-5-[4-(pyridin-2-yl)-1,4-diazepane-1-carbonyl]furo[2,3-d]pyrimidin-4-amine], the IC50 is 100 to 1000 nM.

Consider `COc1ccc(N2CCCN(C(=O)c3c(C)oc4ncnc(NC5(C)CC5)c34)CC2)cc1` [Example 159, 5-[4-(4-Methoxyphenyl)-1,4-diazepane-1-carbonyl]-6-methyl-N-(1-methylcyclopropyl)furo[2,3-d]pyrimidin-4-amine], for which the IC50 was 100 to 1000 nM.

For `Cc1oc2ncnc(NC3(C)CC3)c2c1C(=O)N1CCN(c2ccnc(F)c2)CC1` [Example 160, 5-[4-(2-fluoropyridin-4-yl)piperazine-1-carbonyl]-6-methyl-N-(1-methylcyclopropyl)furo[2,3-d]pyrimidin-4-amine], the IC50 is 10 to 100 nM.

Regarding `Cc1oc2ncnc(NC3(C)CC3)c2c1C(=O)N1CCN(c2cc(F)ncn2)CC1` [Example 161, 5-[4-(6-Fluoropyrimidin-4-yl)piperazine-1-carbonyl]-6-methyl-N-(1-methylcyclopropyl)furo[2,3-d]pyrimidin-4-amine], the IC50 was 10 to 100 nM.

In the case of `Cc1oc2ncnc(NC3(C)CC3)c2c1C(=O)N1CCN(c2ccnc(F)n2)CC1` [Example 162, 5-[4-(2-Fluoropyrimidin-4-yl)piperazine-1-carbonyl]-6-methyl-N-(1-methylcyclopropyl)furo[2,3-d]pyrimidin-4-amine], the IC50 is 10 to 100 nM.

Regarding `Cc1oc2ncnc(NC3(C)CC3)c2c1C(=O)NCc1ccncc1F` [Example 163, N-[(3-Fluoropyridin-4-yl)methyl]-6-methyl-4-[(1-methylcyclopropyl)amino]furo[2,3-d]pyrimidine-5-carboxamide], the IC50 is 10 to 100 nM.

For `Cc1oc2ncnc(NC3(C)CC3)c2c1C(=O)NCc1ccnc(F)c1` [Example 164, N-[(2-Fluoropyridin-4-yl)methyl]-6-methyl-4-[(1-methylcyclopropyl)amino]furo[2,3-d]pyrimidine-5-carboxamide], the IC50 was 10 to 100 nM.

Take `Cc1oc2ncnc(NC3(C)CC3)c2c1C(=O)NC1CCCC1` [Example 165, N-Cyclopentyl-6-methyl-4-[(1-methylcyclopropyl)amino]furo[2,3-d]pyrimidine-5-carboxamide]: the IC50 is 10 to 100 nM.

For the compound `CCCCCNC(=O)c1c(C)oc2ncnc(NC3(C)CC3)c12` [Example 167, 6-Methyl-4-[(1-methylcyclopropyl)amino]-N-pentylfuro[2,3-d]pyrimidine-5-carboxamide], the IC50 is 10 to 100 nM.

Take `Cc1oc2ncnc(NC3(C)CC3)c2c1C(=O)NCCC(C)C` [Example 168, 6-Methyl-N-(3-methylbutyl)-4-[(1-methylcyclopropyl)amino]furo[2,3-d]pyrimidine-5-carboxamide]: the IC50 is 10 to 100 nM.

As for `CCC(CC)NC(=O)c1c(C)oc2ncnc(NC3(C)CC3)c12` [Example 169, 6-Methyl-4-[(1-methylcyclopropyl)amino]-N-(pentan-3-yl)furo[2,3-d]pyrimidine-5-carboxamide], the IC50 was 10 to 100 nM.

For the compound `Cc1oc2ncnc(NC3(C)CC3)c2c1C(=O)NC(C)C(C)C` (stereo not shown) [Example 170, 6-Methyl-N-(3-methylbutan-2-yl)-4-[(1-methylcyclopropyl)amino]furo[2,3-d]pyrimidine-5-carboxamide], the IC50 was 10 to 100 nM.

In the case of `CCOCCNC(=O)c1c(C)oc2ncnc(NC3(C)CC3)c12` [Example 171, N-(2-Rthoxyethyl)-6-methyl-4-[(1-methylcyclopropyl)amino]furo[2,3-d]pyrimidine-5-carboxamide], the IC50 is 100 to 1000 nM.

For the compound `Cc1oc2ncnc(NC3(C)CC3)c2c1C(=O)Nc1ccnn1C` [Example 174, 6-Methyl-N-(1-methyl-1H-pyrazol-5-yl)-4-[(1-methylcyclopropyl)amino]furo[2,3-d]pyrimidine-5-carboxamide], the IC50 is 100 to 1000 nM.

For the compound `Cc1oc2ncnc(NC3(C)CC3)c2c1C(=O)NCC1CCCO1` (stereo not shown) [Example 175, 6-Methyl-4-[(1-methylcyclopropyl)amino]-N-(oxolan-2-ylmethyl)furo[2,3-d]pyrimidine-5-carboxamide], the IC50 was 10 to 100 nM.
